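Cells were grown in 96-well plates and exposed to each compound for 48 hours at five concentrations; endpoints were interpolated linearly between bracketing concentrations, or set to the highest concentration if not reached. Here, GI50 denotes the concentration required for 50% inhibition of growth.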 Calls of active or inactive are those of the source. Cut-off read from the data, not from the text of the source: active = GI50 up to about 1.1 µM and inactive = higher.
Legend:
Assay in all cases: DTP human tumour cell line panel, 48 h
[1] = tested on: HOP-92
[2] = tested on: HOP-62
[3] = tested on: UACC-257
[4] = tested on: NCI-H226
[5] = tested on: SK-MEL-5
[6] = tested on: HCC 2998
[7] = tested on: BT-549
[8] = tested on: SNB-75
[9] = tested on: U-251
[10] = tested on: Hs-578T
[11] = tested on: T47D
[12] = tested on: RXF 393
[13] = tested on: NCI-H23
[14] = tested on: DU-145
[15] = tested on: SF-295
[16] = tested on: MDA-MB-435
[17] = tested on: HL-60
[18] = tested on: SF-268
[19] = tested on: NCI/ADR-RES
[20] = tested on: HCT-15
[21] = tested on: SK-MEL-28
[22] = tested on: LOX IMVI
[23] = tested on: HT-29
[24] = tested on: M14
[25] = tested on: HCT-116
[26] = tested on: KM12
[27] = tested on: ACHN
[28] = tested on: 786-0
[29] = tested on: NCI-H522
[30] = tested on: EKVX
[31] = tested on: SK-MEL-2
[32] = tested on: SK-OV-3
[33] = tested on: A498
[34] = tested on: OVCAR-5
[35] = tested on: MDA-MB-231
[36] = tested on: RPMI-8226
[37] = tested on: A549
[38] = tested on: K562
[39] = tested on: OVCAR-3
[40] = tested on: Malme-3M
[41] = tested on: NCI-H460
[42] = tested on: UACC-62
[43] = tested on: SN12C
[44] = tested on: SW-620
[45] = tested on: TK-10
[46] = tested on: IGROV-1
[47] = tested on: MDA-N
[48] = tested on: PC-3
[49] = tested on: OVCAR-4
[50] = tested on: COLO 205
[51] = tested on: UO-31
[52] = tested on: CCRF-CEM
[53] = tested on: SNB-19
[54] = tested on: CAKI-1
[55] = tested on: OVCAR-8
[56] = tested on: MCF7
[57] = tested on: MOLT-4

COc1c2cc([N+](=O)[O-])cc1CNC(=O)CN1CCOCCOCCN(CCOCCOCC1)CC(=O)NC2
GI50 [1]: > 100 µM (inactive)
GI50 [2]: > 100 µM (inactive)
GI50 [3]: > 100 µM (inactive)
GI50 [4]: > 100 µM (inactive)
GI50 [5]: > 100 µM (inactive)
GI50 [6]: > 100 µM (inactive)
GI50 [7]: > 100 µM (inactive)
GI50 [8]: > 100 µM (inactive)
GI50 [9]: > 100 µM (inactive)
GI50 [10]: > 100 µM (inactive)
GI50 [11]: > 100 µM (inactive)
GI50 [12]: > 100 µM (inactive)
GI50 [13]: > 100 µM (inactive)
GI50 [14]: > 100 µM (inactive)
GI50 [15]: > 100 µM (inactive)
GI50 [16]: > 100 µM (inactive)
GI50 [17]: > 100 µM (inactive)
GI50 [18]: > 100 µM (inactive)
GI50 [19]: > 100 µM (inactive)
GI50 [20]: > 100 µM
GI50 [21]: > 100 µM (inactive)
GI50 [22]: > 100 µM (inactive)
GI50 [23]: > 100 µM (inactive)
GI50 [24]: > 100 µM (inactive)
GI50 [25]: > 100 µM (inactive)
GI50 [26]: > 100 µM (inactive)
GI50 [27]: > 100 µM (inactive)
GI50 [28]: > 100 µM (inactive)
GI50 [29]: > 100 µM (inactive)
GI50 [30]: > 100 µM (inactive)
GI50 [31]: > 100 µM (inactive)
GI50 [32]: > 100 µM (inactive)
GI50 [33]: > 100 µM (inactive)
GI50 [34]: > 100 µM (inactive)
GI50 [35]: > 100 µM (inactive)
GI50 [36]: 56.4 µM (inactive)
GI50 [37]: > 100 µM (inactive)
GI50 [38]: > 100 µM (inactive)
GI50 [39]: > 100 µM (inactive)
GI50 [40]: > 100 µM (inactive)
GI50 [41]: > 100 µM (inactive)
GI50 [42]: > 100 µM (inactive)
GI50 [43]: > 100 µM (inactive)
GI50 [44]: > 100 µM (inactive)
GI50 [45]: > 100 µM (inactive)
GI50 [46]: > 100 µM (inactive)
GI50 [47]: > 100 µM (inactive)
GI50 [48]: > 100 µM (inactive)
GI50 [49]: > 100 µM (inactive)
GI50 [50]: > 100 µM (inactive)
GI50 [51]: > 100 µM (inactive)
GI50 [52]: > 100 µM (inactive)
GI50 [53]: > 100 µM (inactive)
GI50 [54]: > 100 µM (inactive)
GI50 [55]: > 100 µM (inactive)
GI50 [56]: > 100 µM (inactive)
GI50 [57]: > 100 µM (inactive)
